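Compound exposure: 48 hours, 5 concentrations, 96-well plates. GI50 marks 50% less growth. TGI: concentration producing complete growth inhibition.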
Legend:
Assay in all cases: NCI-60 cell line screen, 48 h
[1] = tested on: NCI-H522 lung
[2] = tested on: U251 CNS
[3] = tested on: HOP-62 NSCLC
[4] = tested on: A549 NSCLC
[5] = tested on: SF-268 CNS
[6] = tested on: 786-0 renal
[7] = tested on: SF-539 CNS
[8] = tested on: SF-295 CNS
[9] = tested on: KM12 colon
[10] = tested on: MDA-MB-435
[11] = tested on: HL-60(TB) leukemia
[12] = tested on: IGROV1 ovarian
[13] = tested on: RPMI-8226 leukemia
[14] = tested on: TK-10 renal
[15] = tested on: SNB-19 CNS
[16] = tested on: SR leukemia
[17] = tested on: HS 578T breast
[18] = tested on: OVCAR-8 ovarian
[19] = tested on: K-562 leukemia
[20] = tested on: NCI/ADR-RES ovarian
[21] = tested on: SK-MEL-2 melanoma
[22] = tested on: ACHN renal
[23] = tested on: MDA-MB-231 breast
[24] = tested on: LOX IMVI melanoma
[25] = tested on: EKVX NSCLC
[26] = tested on: SN12C renal
[27] = tested on: M14 melanoma
[28] = tested on: UO-31 renal
[29] = tested on: SK-MEL-5 melanoma
[30] = tested on: PC-3 prostate
[31] = tested on: RXF 393 renal
[32] = tested on: SNB-75 CNS
[33] = tested on: HOP-92 NSCLC
[34] = tested on: OVCAR-4 ovarian
[35] = tested on: HCC-2998 colon
[36] = tested on: OVCAR-5 ovarian
[37] = tested on: MOLT-4 leukemia
[38] = tested on: MALME-3M melanoma
[39] = tested on: SW-620 colon
[40] = tested on: UACC-62 melanoma
[41] = tested on: CCRF-CEM leukemia
[42] = tested on: COLO 205 colon
[43] = tested on: UACC-257 melanoma
[44] = tested on: T-47D breast
[45] = tested on: NCI-H23 lung
[46] = tested on: SK-MEL-28 melanoma
[47] = tested on: HCT-15 colon
[48] = tested on: MCF7 breast
[49] = tested on: SK-OV-3 ovarian

With `Cc1cc(N2CCOCC2)nc(N(CCNc2ccnc3cc(Cl)ccc23)Cc2cccs2)n1` the GI50 [1] was 1.72 µM, the TGI [1] was 3.72 µM and the GI50 [2] was 1.88 µM. It also gave a TGI [2] of 3.64 µM, a GI50 [3] of 2.44 µM and a TGI [3] of 6.52 µM. The GI50 [4] was 3.08 µM, the TGI [4] was 12 µM and the GI50 [5] was 3.27 µM. It also gave a TGI [5] of 10.6 µM, a GI50 [6] of 1.69 µM and a TGI [6] of 3.12 µM. It also gave a GI50 [7] of 1.81 µM, a TGI [7] of 3.32 µM and a GI50 [8] of 1.58 µM. For the same molecule, the TGI [8] was 3.13 µM, the GI50 [9] was 2.23 µM and the TGI [9] was 5.34 µM. It also gave a GI50 [10] of 1.76 µM, a TGI [10] of 3.32 µM and a GI50 [11] of 1.95 µM. The TGI [11] was 3.83 µM, the GI50 [12] was 1.96 µM and the TGI [12] was 4.97 µM. The GI50 [13] was 1.87 µM, the TGI [13] was 4.04 µM and the GI50 [14] was 2.35 µM. The TGI [14] was 6.57 µM, the GI50 [15] was 4.24 µM and the TGI [15] was 76.2 µM. For the same molecule, the GI50 [16] was 1.47 µM, the TGI [16] was 3.94 µM and the GI50 [17] was 2.24 µM. The TGI [17] was 5.45 µM, the GI50 [18] was 1.96 µM and the TGI [18] was 4.06 µM. For the same molecule, the GI50 [19] was 1.67 µM, the TGI [19] was 3.98 µM and the GI50 [20] was 3.45 µM. For the same molecule, the TGI [20] was over 100 µM, the GI50 [21] was 1.99 µM and the TGI [21] was 4.08 µM. The GI50 [22] was 1.91 µM, the TGI [22] was 3.79 µM and the GI50 [23] was 1.97 µM. For the same molecule, the TGI [23] was 3.64 µM, the GI50 [24] was 1.72 µM and the TGI [24] was 3.18 µM. The GI50 [25] was 2.79 µM, the TGI [25] was 44 µM and the GI50 [26] was 1.9 µM. The TGI [26] was 4.01 µM, the GI50 [27] was 1.79 µM and the TGI [27] was 3.41 µM. The GI50 [28] was 1.39 µM, the TGI [28] was 2.75 µM and the GI50 [29] was 1.59 µM. For the same molecule, the TGI [29] was 2.96 µM, the GI50 [30] was 1.8 µM and the TGI [30] was 4.84 µM. For the same molecule, the GI50 [31] was 1.74 µM, the TGI [31] was 3.47 µM and the GI50 [32] was 1.98 µM. The TGI [32] was 5.25 µM, the GI50 [33] was 0.22 µM and the TGI [33] was 1.93 µM. The GI50 [34] was 2.37 µM, the TGI [34] was 7.59 µM and the GI50 [35] was 2.39 µM. The TGI [35] was 5.11 µM, the GI50 [36] was 2.19 µM and the TGI [36] was 4.73 µM. The GI50 [37] was 2.58 µM, the TGI [37] was 5.93 µM and the GI50 [38] was 2.06 µM. The TGI [38] was 3.72 µM, the GI50 [39] was 1.92 µM and the TGI [39] was 4.18 µM. For the same molecule, the GI50 [40] was 1.9 µM, the TGI [40] was 3.65 µM and the GI50 [41] was 2.02 µM. The TGI [41] was 6.1 µM, the GI50 [42] was 1.62 µM and the TGI [42] was 3.25 µM. The GI50 [43] was 1.88 µM, the TGI [43] was 3.6 µM and the GI50 [44] was 1.84 µM. For the same molecule, the TGI [44] was 4.4 µM, the GI50 [45] was 3 µM and the TGI [45] was over 100 µM. For the same molecule, the GI50 [46] was 1.76 µM, the TGI [46] was 3.7 µM and the GI50 [47] was 1.78 µM. The TGI [47] was 4.05 µM, the GI50 [48] was 1.97 µM and the TGI [48] was 4.68 µM.
For `Cc1cc2c(C#N)n3c(c2cc1C)C(=O)C(c1ccccc1)Oc1ccccc1-3` (stereo not given), the GI50 [3] was 3.71 µM, the TGI [3] was over 100 µM and the GI50 [5] was 3.73 µM. For the same molecule, the TGI [5] was over 100 µM, the GI50 [6] was 3.91 µM and the TGI [6] was over 100 µM. The GI50 [8] was 3.83 µM, the TGI [8] was over 100 µM and the GI50 [14] was 3.33 µM. The TGI [14] was over 100 µM, the GI50 [15] was 2.97 µM and the TGI [15] was over 100 µM. For the same molecule, the GI50 [17] was 4.29 µM, the TGI [17] was over 100 µM and the GI50 [31] was 2.71 µM. It also gave a TGI [31] of 39.6 µM, a GI50 [32] of 2.25 µM and a TGI [32] of 9.58 µM. It also gave a GI50 [33] of 1.62 µM, a TGI [33] of 5.77 µM and a GI50 [35] of over 100 µM. It also gave a TGI [35] of over 100 µM, a GI50 [49] of 5.55 µM and a TGI [49] of over 100 µM.

— PubChem BioAssay (NCI)
